The structures appear in SMILES notation.

This assay deals with T1, recombinant human mPGES-1 (Homo sapiens, UniProt O14684).
T1 construct: made in house; host or cells: Rosetta E. coli (microsomal/membrane fraction)
T1 sequence (O14684 1-152): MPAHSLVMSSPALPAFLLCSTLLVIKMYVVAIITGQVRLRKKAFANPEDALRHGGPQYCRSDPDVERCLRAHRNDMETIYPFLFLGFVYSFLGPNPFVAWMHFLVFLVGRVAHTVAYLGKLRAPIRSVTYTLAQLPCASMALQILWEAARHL
Nature of the assay: mPGES-1 inhibition, HTRF detection of PGE2 (Biological Test). It is filed as biochemical. The protocol: Microsomes from Rosetta E. coli bacteria expressing recombinant human mPGES-1 is dissolved in 0.1 M KPi pH 7.4 buffer containing 2.5 mM GSH. 50 μl of the enzyme is subsequently dispensed in a 384-well plate. 0.5 μl of the inhibitor dissolved in DMSO at is thereafter added to each well and incubated for 25 minutes at room temperature.
Subsequently, 2 μl of PGH2 dissolved in an appropriate solvent is added to each well and after one minute the acidified stop solution containing FeCl2 is added. 4 μl of the total volume is transferred to a separate plate and diluted 750-fold in two separate steps before HTRF detection of PGE2.
The HTRf detection is performed by the use of a commercially available kit from CisBio essentially according to the manufacturer's protocol. Briefly, 10 μl of the diluted sample is transferred to a white 384-well plate. 5 μl of d2 and 5 μl Eu3+-Cryptate labeled anti-PGE2 is added to each well containing samples by the use of a Multidrop. The plate is covered with a plastic self-adhesive film, centrifuged at 1200 rpm for 1 minute and subsequently stored at +4° C. over night.
After over night incubation the fluorescence is measured by the use of an appropriate microplate reader. The fluorescence of europium cryptate, and d2 are measured using the following excitation and emission wavelength, europium cryptate: λmax^ex=307 nm, λmax^em=620 nm and d2: λmax^ex=620 nm, λmax^em=665 nm), respectively. The extent of the specific FRET is measured as a ratio of the emission intensity at 665 nm vs. that at 620 nm. A standard curve using synthetic PGE2 is used to quantify the amount of PGE2 in unknown samples.
A general note: Time-resolved FRET reads energy transfer from a long-lived donor to a nearby acceptor.
For `O=C(N[C@H]1CC[C@H](C(F)(F)F)CC1)c1cc2nc(Nc3c(Cl)cncc3Cl)[nH]c2cc1OC(F)F` [Example 701, 2-(3,5-Dichloropyridin-4-ylamino)-N-(trans-4-trifluoromethyl-cyclohex-1-yl)-6-difluoromethoxy-1H-benzimidazole-5-carboxamide], the inhibition (commonly the relative decrease from the control value, in per cent) at 10 µM came to 100%.
Regarding `CC1(C)CCC(NC(=O)c2ccc3nc(Nc4c(Cl)cncc4Cl)[nH]c3c2)CC1` [Example 409, 2-(3,5-Dichloropyridin-4-ylamino)-N-(4,4-dimethylcyclohexyl)-1H-benzimidazole-6-carboxamide], the inhibition at 10 µM is 100%.
In the case of `CCCOc1cc2c(cc1C(=O)Nc1ccc(Br)cc1)nc(Nc1c(Cl)cncc1Cl)n2C` [Example 660, 2-(3,5-Dichloropyridin-4-ylamino)-N-(4-bromophenyl)-6-propoxy-1-methyl-1H-benzimidazole-5-carboxamide] it was 99%.
In the case of `O=C(Nc1ccc(Br)cc1)c1cc2nc(Nc3c(Cl)cncc3Cl)[nH]c2cc1OCC(F)(F)F` [Example 676, 2-(3,5-Dichloropyridin-4-ylamino)-N-(4-bromophenyl)-6-(2,2,2-trifluoroethoxy)-1H-benzimidazole-5-carboxamide] it was 100%; in that of `CCOc1cc2[nH]c(Nc3c(Cl)cncc3Cl)nc2cc1C(=O)N[C@H]1CC[C@H](C(F)(F)F)CC1` [Example 690, 2-(3,5-Dichloropyridin-4-ylamino)-N-(trans-4-trifluoromethyl-cyclohex-1-yl)-6-ethoxy-1H-benzimidazole-5-carboxamide], 100%.
Consider `Cn1c(Nc2ccncc2Cl)nc2cc(C(=O)Nc3ccc(Br)cc3)ccc21` [Example 520, N-(4-Bromophenyl)-2-(3-chloropyridin-4-ylamino)-1-methyl-1H-benzimidazole-5-carboxamide], for which the inhibition at 10 µM was determined as 97%.
As for `O=C(Nc1cccc(C(F)F)n1)c1cc2nc(Nc3c(Cl)cncc3Cl)[nH]c2cc1OCC(F)(F)F` [Example 708, 2-(3,5-Dichloropyridin-4-ylamino)-N-(6-difluoromethyl-pyridin-2-yl)-6-(2,2,2-trifluoroethoxy)-1H-benzimidazole-6-carboxamide], the figure is 100%; as for `O=C(Nc1ccc(Br)cc1)c1cc2nc(Nc3c(Cl)cncc3Cl)[nH]c2cc1OC(F)F` [Example 703, 2-(3,5-Dichloropyridin-4-ylamino)-N-(4-bromo-phenyl)-6-difluoromethoxy-1H-benzimidazole-5-carboxamide], 98%; as for `CN1CCC(Oc2cc3c(cc2C(=O)Nc2ccc(Br)cc2)nc(Nc2c(Cl)cncc2Cl)n3C)C1` (centres unmarked) [Example 662, 2-(3,5-Dichloropyridin-4-ylamino)-N-(4-bromophenyl)-6-(N-methyl-pyrrolidin-3-yl-oxy)-1-methyl-1H-benzimidazole-5-carboxamide], 99%.
As for `CCOc1cc2c(cc1C(=O)NC1CCC(C)(C)CC1)nc(Nc1c(Cl)cncc1Cl)n2C` [Example 670, 2-(3,5-Dichloropyridin-4-ylamino)-N-(4,4-dimethyl-cyclohexyl)-6-ethoxy-1-methyl-1H-benzimidazole-5-carboxamide], the figure is 100%.
On to `COCCOc1cc2[nH]c(Nc3c(Cl)cncc3Cl)nc2cc1C(=O)NCc1ncccc1C(F)(F)F` [Example 686, 2-(3,5-Dichloro-pyridin-4-ylamino)-N-((3-trifluoromethyl-pyridin-2-yl)-methyl)-6-(2-methoxy-ethoxy)-1H-benzimidazole-5-carboxamide], for which the inhibition at 10 µM turned out to be 99%.
As for `CCOc1cc2[nH]c(Nc3c(Cl)cncc3Cl)nc2cc1C(=O)NCc1ncccc1Cl` [Example 693, 2-(3,5-Dichloropyridin-4-ylamino)-N-((3-chloro-pyridin-2-yl)-methyl)-6-ethoxy-1H-benzimidazole-5-carboxamide], the figure is 97%; as for `CCOc1cc2c(cc1C(=O)Nc1ccc(Br)cc1)nc(Nc1c(Cl)cncc1Cl)n2CC(F)(F)F` [Example 704], 100%.
As for `CC1(C)CCC(NC(=O)c2ccc3[nH]c(Nc4c(Cl)cncc4Cl)nc3c2)CC1` [Example 446, 2-(3,5-Dichloropyridin-4-ylamino)-N-(4,4-dimethylcyclohexyl)-1H-benzimidazole-5-carboxamide], the figure is 100%.
On to `O=C(NCc1ccccc1C(F)(F)F)c1ccc2[nH]c(Nc3c(Cl)cncc3Cl)nc2c1` [Example 493, 2-(3,5-Dichloropyridin-4-ylamino)-N-(2-trifluoromethyl-benzyl)-1H-benzimidazole-5-carboxamide], for which the inhibition at 10 µM came to 100%.
As for `Cn1c(Nc2c(Cl)cncc2Cl)nc2cc(C(=O)NCc3ncccc3C(F)(F)F)ccc21` [Example 553, 2-(3,5-Dichloropyridin-4-ylamino)-1-methyl-N-((3-trifluoromethyl-pyridin-2-yl)methyl)-1H-benzimidazole-5-carboxamide], the figure is 53%.
As for `O=C(Nc1cc(C(F)F)c(F)cn1)c1cc2nc(Nc3c(Cl)cncc3Cl)[nH]c2cc1OCC(F)(F)F` [Example 699], the figure is 100%.
